From patent US12240851B1, “Pyrido[3′,4′:4,5]pyrrolo[3,2-c]naphthyridine compounds as CK2 inhibitors” (KING FAISAL UNIVERSITY, priority 2023, dated 2025)

Columns and labels:
[1] = test system: MDA-MB-231 (breast); experiment: In vitro cytotoxic activity assay (MTT), MDA-MB-231; assay type: cell-based; conditions: Homo sapiens, 96 hours exposure, read-out: IC50, 50% inhibition of cell proliferation
Description: (§1) Compounds 1-15 were screened for their in vitro cytotoxic activity utilizing a 3-(4,5-dimethyl-thiazol-2-yl)-2,5-diphenyltetrazolium bromide (MTT) assay against selected cancer human cell lines consisting of PC3 (prostate), HCT116 (colon), A375 (melanoma), H1299 (lung), MIAPaCa-2 (pancreas), HL60 (leukemia), MCF7 (breast), MDA-MB-231 (breast) (T. Mosmann, J. Immunol. Meth., 1983, 65, 55-63). The cells were cultured at 37° C. in RMPI1640 medium supplemented with 10% fetal bovine serum, 50 IU/mL penicillin, and 50 µg/mL streptomycin in a 5% CO2 incubator. All cells were sub-cultured 3 times/week by trypsinisation. Viable cells were seeded and allowed to adhere for 12 h before a test drug was added in 96-well plates at an initial density of 1.0×10^5 cells/mL. Tumour cell lines were separately exposed to various concentrations of the tested compounds followed by incubation at a temperature of 37° C. during 96 h inside a medium of fresh RMPI 1640. Cells were subsequently incubated at 37° C. using MTT at 0.5 mg/mL during 4 h. After removal of supernatant, formazan crystals were dissolved in isopropanol and the optical density was measured at 570 nm. CX-4945 was used as a positive control.

[2] = test system: PC3 (prostate); experiment: In vitro cytotoxic activity assay (MTT), PC3; assay type: cell-based; conditions: Homo sapiens, 96 hours exposure, read-out: IC50, 50% inhibition of cell proliferation
Description: as §1

[3] = test system: H1299 (lung); experiment: In vitro cytotoxic activity assay (MTT), H1299; assay type: cell-based; conditions: Homo sapiens, NCI-H1299, 96 hours exposure, read-out: IC50, 50% inhibition of cell proliferation
Description: as §1

[4] = test system: HL60 (leukemia); experiment: In vitro cytotoxic activity assay (MTT), HL60; assay type: cell-based; conditions: Homo sapiens, HL-60, 96 hours exposure, read-out: IC50, 50% inhibition of cell proliferation
Description: as §1

[5] = target: T1, recombinant human CK2 (RRββ-holoenzyme) (Homo sapiens, UniProt P68400); experiment: CK2 Kinase Assay (33P-ATP, filter plate); assay type: biochemical; conditions: final ATP concentration 15 μM, 10 min at 30° C.; read-out: protein kinase CK2 IC50
T1 construct: purchased Millipore
Description: CK2 Kinase Assay was conducted using the protocol as described in Pierre F. et al; J. Med. Chem. 2011, 54, 635-654. The tested compounds in aqueous solution were added at a volume of 10 μL to a reaction mixture comprising 10 μL of assay dilution buffer (ADB; 20 mM MOPS, pH 7.2, 25 mM β-glycerol phosphate, 5 mM EGTA, 1 mM sodium orthovanadate, and 1 mM dithiothreitol), 10 μL of substrate peptide (RRRDDDSDDD, dissolved in ADB at a concentration of 1 mM), 10 μL of recombinant human CK2 (RRββ-holoenzyme, 25 ng dissolved in ADB; Millipore). Reactions were initiated by the addition of 10 μL of ATP solution (90% 75 mMMgCl2, 75 μM ATP (final ATP concentration:15 μM) dissolved in ADB; 10% [γ-33P] ATP (stock 1mCi/100 μL; 3000 Ci/mmol (Perkin-Elmer) and maintained for 10 min at 30° C. The reactions were quenched with 100 μL of 0.75% phosphoric acid and then transferred to and filtered through a phosphor cellulose filter plate (Millipore). After washing each well five times with 0.75% phosphoric acid, the plate was dried under vacuum for 5 min and, following the addition of 15 μL of scintillation fluid to each well, the residual radioactivity was measured using a Wallac […]. The IC50 values were derived from eight concentrations of test inhibitors.

[6] = test system: A375 (melanoma); experiment: In vitro cytotoxic activity assay (MTT), A375; assay type: cell-based; conditions: Homo sapiens, A-375, 96 hours exposure, read-out: IC50, 50% inhibition of cell proliferation
Description: as §1

[7] = test system: MCF7 (breast); experiment: In vitro cytotoxic activity assay (MTT), MCF7; assay type: cell-based; conditions: Homo sapiens, 96 hours exposure, read-out: IC50, 50% inhibition of cell proliferation
Description: as §1

[8] = test system: HCT116 (colon); experiment: In vitro cytotoxic activity assay (MTT), HCT116; assay type: cell-based; conditions: Homo sapiens, HCT-116, 96 hours exposure, read-out: IC50, 50% inhibition of cell proliferation
Description: as §1

[9] = test system: MIAPaCa-2 (pancreas); experiment: In vitro cytotoxic activity assay (MTT), MIAPaCa-2; assay type: cell-based; conditions: Homo sapiens, MIA PaCa-2, 96 hours exposure, read-out: IC50, 50% inhibition of cell proliferation
Description: as §1

T1 sequence (P68400 whole entry): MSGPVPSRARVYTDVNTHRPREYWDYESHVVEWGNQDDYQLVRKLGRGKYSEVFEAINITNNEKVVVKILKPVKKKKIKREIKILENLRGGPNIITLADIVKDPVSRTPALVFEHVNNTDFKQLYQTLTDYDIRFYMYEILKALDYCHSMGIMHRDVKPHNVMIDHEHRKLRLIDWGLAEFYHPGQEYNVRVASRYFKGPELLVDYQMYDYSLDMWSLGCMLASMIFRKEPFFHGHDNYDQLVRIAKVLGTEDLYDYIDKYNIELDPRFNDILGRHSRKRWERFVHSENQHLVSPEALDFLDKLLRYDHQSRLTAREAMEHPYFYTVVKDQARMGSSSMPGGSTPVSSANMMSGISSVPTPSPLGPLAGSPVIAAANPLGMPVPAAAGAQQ
T1 sequence (P67870 whole entry partner): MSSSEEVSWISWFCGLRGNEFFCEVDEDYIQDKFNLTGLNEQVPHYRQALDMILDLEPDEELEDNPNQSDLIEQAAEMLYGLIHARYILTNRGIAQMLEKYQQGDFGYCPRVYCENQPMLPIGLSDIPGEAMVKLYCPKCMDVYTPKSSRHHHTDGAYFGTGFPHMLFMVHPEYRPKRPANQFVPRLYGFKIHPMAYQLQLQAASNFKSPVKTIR

SMILES: Clc1cccc(Nc2nc3c4cnccc4[nH]c3c3cnccc23)c1 [Compound (1), N-(3-chlorophenyl)-11H-pyrido[3′,4′:4,5]pyrrolo[3,2-c][2,6]naphthyridin-5-amine]
- IC50 [1]: 2900 nM
- IC50 [2]: 800 nM
- IC50 [3]: 1100 nM
- IC50 [4]: 3200 nM
- IC50 [5]: 21 nM
- IC50 [6]: 4000 nM
- IC50 [7]: 2500 nM
- IC50 [8]: 1500 nM
- IC50 [9]: 1400 nM
